# Laboratory results: article PMC4305095, “Characterization of Aspergillus aculeatus β-glucosidase 1 accelerating cellulose hydrolysis with Trichoderma cellulase system” (AMB Express, 2015)
# Biological target: T1, rAaBGL1 (Aspergillus aculeatus β-glucosidase 1) (Aspergillus aculeatus, UniProt P48825)
# T1 construct: full AaBGL1 gene amplified from A. aculeatus genomic DNA, own signal peptide, no tag mentioned; expressed in Aspergillus oryzae niaD300, released from cell surface
# T1 sequence (P48825 20-860): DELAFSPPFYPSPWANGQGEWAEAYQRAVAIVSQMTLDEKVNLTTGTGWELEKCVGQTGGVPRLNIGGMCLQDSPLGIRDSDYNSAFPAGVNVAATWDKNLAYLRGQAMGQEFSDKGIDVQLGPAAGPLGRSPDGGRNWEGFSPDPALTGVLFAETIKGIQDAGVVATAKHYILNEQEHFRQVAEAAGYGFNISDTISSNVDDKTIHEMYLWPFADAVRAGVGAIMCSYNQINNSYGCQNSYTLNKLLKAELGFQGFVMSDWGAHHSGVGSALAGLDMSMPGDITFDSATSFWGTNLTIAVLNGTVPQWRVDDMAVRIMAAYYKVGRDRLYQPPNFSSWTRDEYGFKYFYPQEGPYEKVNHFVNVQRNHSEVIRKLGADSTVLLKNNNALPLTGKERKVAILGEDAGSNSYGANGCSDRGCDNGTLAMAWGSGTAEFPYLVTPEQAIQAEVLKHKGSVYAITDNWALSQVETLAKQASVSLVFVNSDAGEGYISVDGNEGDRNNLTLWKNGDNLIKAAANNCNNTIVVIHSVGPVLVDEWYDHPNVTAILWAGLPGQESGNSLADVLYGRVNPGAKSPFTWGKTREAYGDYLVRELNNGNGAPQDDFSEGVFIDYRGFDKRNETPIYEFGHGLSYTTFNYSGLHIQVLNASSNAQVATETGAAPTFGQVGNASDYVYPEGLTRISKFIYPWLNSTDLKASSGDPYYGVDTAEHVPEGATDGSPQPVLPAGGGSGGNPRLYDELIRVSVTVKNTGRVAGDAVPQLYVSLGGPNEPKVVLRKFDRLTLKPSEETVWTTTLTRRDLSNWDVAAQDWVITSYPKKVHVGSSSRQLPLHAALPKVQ
# Assay: pNP-Glc hydrolysis, absorbance […] nm, Dixon plot
# Type: biochemical
# Conditions: 0.1-0.4 mM pNP-Glc, 20 mM sodium acetate pH 5.0, 37°C; competitive
compound,measurement,value
OC[C@H]1OC(O)[C@H](O)[C@@H](O)[C@@H]1O (stereo partly shown) [glucose],Ki,9.99 ± 0.94 mM
